One assay relates to H1299 cells. Description: Toxicity of polymer materials in vitro (metabolic/luminescent viability assay). The format is cell-based. The settings on record: H1299, 16-hour exposure, polymer in OPTI-MEM. The method, then:
Material toxicity was assessed using live dead assays.
H1299 cells were seeded in 96-well plates (10000/well). After a 24 h recovery period, cells were treated with 0.1 to 2 μg of PEI (25K, Polyscience, Inc., Philadelphia Pa.), PLL (Alamanda Polymers, Inc., Huntsville Ala., 5 kDa), and P: PLL(M) 33, P: PLL(MN) 33, and P: PLL(TM) 33″ prepared in OPTI-MEM. After a 16-hour exposure, cells were analysed using a live/dead stain or metabolic assay. For the live/dead assay, 10 μL of Calcein AM (2 mM in DMSO) and 5 of propidium iodide (2 mM DMSO) stock solutions were dissolved in 5 mL of PBS. The cells were then washed with PBS twice and staining solution added (100 μL/well). After a 30-minute incubation period at 37° C., the cells were imaged using an IncuCyte plate reader (Sartorius). Alternatively, metabolic assays were performed using Celriter-Glo·Luminescent Assay using the manufacturers standard protocol. Luminescence measurements were collected using a PHERAStar plate reader (BMG LabTech) and IC50 doses were derived by fitting the data in Microsoft excel.

A further assay concerns C2C12. The assay is described as above. It is filed as cell-based.

Consider 1 substance from patent US20230165974A1, “COMPOSITIONS AND METHODS FOR DELIVERING PHARMACEUTICALLY ACTIVE AGENTS” (MEDIMMUNE, LLC, priority 2020, published 2023).

As for Poly-L-lysine [P: PLL], the Toxicity/IC50 in the assay on H1299 cells is listed as 0.21 μg/well; in the assay with C2C12, 0.33 μg/well.
